Assay results taken from PubChem BioAssay (NCI).
Where “and” joins values, the source holds several entries; their conditions need not be identical. Equal values may be shown once.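 A five-concentration, 48-hour dose response in 96-well plates underlies each endpoint, interpolated linearly between surrounding concentrations. GI50 marks 50% less growth. Definition used: TGI = concentration required for complete inhibition of growth.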

What was measured:
Assay in all cases: DTP human tumour cell line panel, 48 h
BT-549 breast = test system: BT-549 breast
COLO 205 colon = test system: COLO 205 colon
EKVX NSCLC = test system: EKVX NSCLC
HCT-116 colon = test system: HCT-116 colon
KM12 colon = test system: KM12 colon
LOX IMVI melanoma = test system: LOX IMVI melanoma
NCI-H522 lung = test system: NCI-H522 lung
PC-3 prostate = test system: PC-3 prostate
SF-268 CNS = test system: SF-268 CNS
U251 CNS = test system: U251 CNS

Structure (SMILES) | GI50 (BT-549 breast) | TGI (BT-549 breast) | GI50 (COLO 205 colon) | GI50 (EKVX NSCLC) | TGI (EKVX NSCLC) | GI50 (HCT-116 colon) | TGI (HCT-116 colon) | GI50 (KM12 colon) | TGI (KM12 colon) | GI50 (LOX IMVI melanoma) | TGI (LOX IMVI melanoma) | GI50 (NCI-H522 lung) | TGI (NCI-H522 lung) | GI50 (PC-3 prostate) | TGI (PC-3 prostate) | GI50 (SF-268 CNS) | TGI (SF-268 CNS) | GI50 (U251 CNS) | TGI (U251 CNS) | TGI (COLO 205 colon)
CCS(=O)(=O)c1cccc(-c2cc(C(=O)NC3CCN(C)CC3)c(C)c3[nH]c4ncc(C)cc4c23)c1 | 1.75 µM and 0.875 µM | 5.84 µM and 2.2 µM | 92.3 nM and 31.8 nM | 1.33 µM and 0.898 µM | > 10 µM and 11 µM | 128 nM and 78.8 nM | 2.66 µM and 5.4 µM | 95.4 nM and 47.8 nM | 1.51 µM and 1.86 µM | 168 nM and 160 nM | 1.22 µM and 0.747 µM | 148 nM and 164 nM | 2.27 µM and 1.68 µM | 374 nM and 104 nM | 5.85 µM and 4.71 µM | 332 nM and 245 nM | 2.19 µM and 1.1 µM | 537 nM and 316 nM | 5.16 µM and 2.35 µM | 
CSC(=S)NCc1cn(C)c2ccccc12 | 20 µM | 54.2 µM | 17500 nM | 32 µM | > 100 µM | 50500 nM | > 100 µM | 33100 nM | > 100 µM | 26500 nM | 94.1 µM | 21500 nM | 86.1 µM | 33000 nM | > 100 µM | 23500 nM | 68 µM | 28600 nM | > 100 µM | 65.9 µM
CCOC(=O)/C=C/c1ccc([N+](=O)[O-])o1 | 3.43 µM | 11.4 µM | 2260 nM | 24.7 µM | 80.7 µM | 1620 nM | 5.62 µM | 12600 nM | 27.6 µM | 1550 nM | 3.71 µM | 1340 nM | 3.24 µM | 11800 nM | 39.9 µM | 5380 nM | 40.5 µM | 14700 nM | 50.4 µM | 5.69 µM
COc1ccc(/C=C(\C#N)c2cc(OC)c(OC)c(OC)c2)cc1 | 0.0282 µM | 0.0883 µM | 11 nM | 0.0656 µM | > 100 µM | 16.1 nM | > 100 µM | < 10 nM | > 100 µM | 25.8 nM | > 100 µM | < 10 nM | 0.0268 µM | 30.8 nM | > 87.1 µM | 48.1 nM | > 100 µM | 35.9 nM | > 100 µM | 0.0251 µM
Cc1c(-c2ccc(-c3ccccc3F)cc2)nc2ccc(F)cc2c1C(=O)O | 17.4 µM and 57.4 µM | 137 µM and 849 µM | 17400 nM and 3810 nM | 77 µM and 53.3 µM | 173 µM and 448 µM | 500 nM | 78.7 µM and 124 µM | 645 nM and 889 nM | 109 µM and 198 µM | 508 nM | 31.2 µM and 71.3 µM | 9890 nM and 67300 nM | 93.8 µM and 434 µM | 270 nM and 750 nM | 103 µM and 429 µM |  | 173 µM and 866 µM | 72.3 nM and 500 nM | 104 µM and 259 µM | 97.7 µM and 234 µM
O=S1(=O)CCC2=CC(C(F)(F)F)=CC(C(F)(F)F)=CN21 |  | 6.1 µM |  |  | 9.38 µM |  | 0.712 µM |  | 3.54 µM |  | 4.95 µM |  | 0.601 µM |  | 5.91 µM |  | 4.68 µM |  | 3.43 µM | 1.34 µM
CC(C)(O)c1cc(Nc2cc(Oc3cn(C4CC4)nc3C3CCOCC3)ccn2)ccn1 | 56.7 µM | > 100 µM | 60900 nM | > 100 µM | > 100 µM | 36200 nM | > 100 µM | > 100000 nM | > 100 µM | 35100 nM | > 100 µM | 52200 nM | > 100 µM | 88100 nM | > 100 µM | > 100000 nM | > 100 µM | > 100000 nM | > 100 µM | > 100 µM
OC(Cc1cccc2ccccc12)CN1CCC(c2ccccc2)CC1 (stereo not drawn) |  | 31.3 µM |  |  | 27.1 µM |  | 28.7 µM |  | 33.7 µM |  | 29.5 µM |  | 21.9 µM |  | 30.5 µM |  | 28.2 µM |  | 26.2 µM | 25.6 µM
Cc1cc(C)nc(NC(=O)COc2ccc(Cl)cc2)c1 |  | > 100 µM |  |  | > 100 µM |  | > 100 µM |  | > 100 µM |  | > 100 µM |  | > 100 µM |  | > 100 µM |  | > 100 µM |  | > 100 µM | > 100 µM
COc1ccc2c(CN3CCCC[C@H]3O)cc3cc4c(cc3c2c1)OCO4 | 1.21 µM | 4.5 µM | 185 nM | 0.817 µM | 9.44 µM | 223 nM | 10.7 µM | 480 nM | 5.22 µM | 228 nM | 0.849 µM | 214 nM | 0.559 µM | 467 nM | 3.53 µM | 417 nM | 5.74 µM | 422 nM | 10.8 µM | 1.36 µM
